In patent publication US11760761B2, “Methods and compositions for targeting PD-L1” (Aligos Therapeutics, Inc., priority 2020, dated 2023):

Assays:
PDL1/PD1 = PDL1/PD1 (Homo sapiens (Human), UniProt Q9NZQ7); experiment: PDL1/PD1 Binding Assay; details: PDL1-6xHis 0.3 nM, PD1-Fc-Avi-Biotin 2.5 nM, Acceptor/Donor beads; read-out: PD-1/PD-L1 PPI IC50
Description: Compounds to be tested were serially diluted in DMSO, and further diluted in assay buffer (25 mM Hepes pH 7.4, 150 mM NaCl, 0.005% Tween 20, BSA 0.01%). Diluted compounds were added to the wells with final concentration of DMSO at 1%. PDL1-6×His protein was added to the wells, mixed well with compound. The plates were incubated for 30 min at room temperature. PD1-Fc-Avi-Biotin protein was added to the wells. Final concentration of PDL1 and PD1 protein is 0.3 nM and 2.5 nM, respectively. After a binding time of 30 min at room temperature, Anti-6×His Acceptor beads (final concentration 20 ug/ml) were added to the wells, and the incubation continued for 1 h. Streptavidin Donor beads (final concentration 20 ug/mL) were added at reduced light. The plates were sealed with foil and incubated in the dark for additional 1 h or overnight before reading on an Envision reader. The IC50 values were determined by fitting the curves using a four-parameter equation in Graphpad Prism 8.

PD-1/PD-L1 interaction = PD-1/PD-L1 interaction (Homo sapiens (Human), UniProt Q9NZQ7); experiment: PD-1/PD-L1 NFAT Reporter Assay (Jurkat T cells / PD-L1 expressing CHO cells co-culture); type: cell-based; details: co-culture 6 hrs at 37° C., luciferase
Description: Blocking the PD-1/PD-L1 interaction will release the inhibitory signal and results in TCR signaling and NFAT-mediated luciferase activity.
CHO cells expressing surface-bound anti-CD3 antibodies and PD-L1 were first seeded overnight and treated with the compounds. Jurkat cells overexpressing PD-1 and a luciferase construct under NF-AT promoter were then immediately seeded on the monolayer of CHO cells. The co-culture was then incubated for 6 hrs at 37° C. Luciferase activity was assessed by adding the ONE-Glo reagent and measuring luminescence with a plate reader. EC50s values were determined from the fit of the dose-response curves Emax (%) corresponds to the maximum NFAT-activation level reached by a given compound relative to the positive control (10 nM Atezolizumab).

Sequence of PDL1/PD1 (Q9NZQ7 19-238): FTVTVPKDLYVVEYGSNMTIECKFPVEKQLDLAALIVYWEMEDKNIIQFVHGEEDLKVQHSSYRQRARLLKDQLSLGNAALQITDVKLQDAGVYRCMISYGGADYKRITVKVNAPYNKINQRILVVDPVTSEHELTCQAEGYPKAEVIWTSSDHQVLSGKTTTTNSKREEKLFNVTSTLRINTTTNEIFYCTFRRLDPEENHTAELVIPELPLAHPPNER
Sequence of PD-1/PD-L1 interaction (Q9NZQ7 19-290): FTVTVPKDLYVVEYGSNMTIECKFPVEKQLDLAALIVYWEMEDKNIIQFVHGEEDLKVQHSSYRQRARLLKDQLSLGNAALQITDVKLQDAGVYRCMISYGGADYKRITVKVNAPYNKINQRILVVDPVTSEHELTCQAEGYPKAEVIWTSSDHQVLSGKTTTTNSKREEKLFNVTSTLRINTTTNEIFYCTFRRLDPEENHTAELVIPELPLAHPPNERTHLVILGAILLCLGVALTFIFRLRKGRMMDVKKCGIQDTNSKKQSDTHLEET

Structure (SMILES) | IC50 (PDL1/PD1) [nM] | EC50 (PD-1/PD-L1 interaction) [nM]
COc1nc(-c2cccc(-c3cccc(-c4cc5c(c(OC)n4)[C@@H](N4CC6(CCC(=O)N6)C4)CC5)c3Cl)c2Cl)cnc1CN1CC2(CCC(=O)N2)C1 (single isomer, unassigned) [Compound C-3] | ≤ 10 | ≤ 10
COc1nc(-c2cccc(-c3cccc(-c4cc5c(c(OC)n4)[C@H](N4CC6(CCC(=O)N6)C4)CC5)c3Cl)c2Cl)cnc1CN1CC2(CCC(=O)N2)C1 (single isomer, unassigned) [Compound C-4] | ≤ 10 | > 10000
COc1nc(-c2cccc(-c3cccc(-c4cc5c(c(OC)n4)[C@@H](N4CC(O)C4)CC5)c3Cl)c2Cl)cnc1CN1CC2(CCC(=O)N2)C1 (single isomer, unassigned) [Compound C-5] | ≤ 10 | ≤ 10
COc1nc(-c2cccc(-c3cccc(-c4cc5c(c(OC)n4)[C@H](N4CC(O)C4)CC5)c3Cl)c2Cl)cnc1CN1CC2(CCC(=O)N2)C1 (single isomer, unassigned) [Compound C-6] | ≤ 10 | 100 to 1000
COc1nc(-c2cccc(-c3cccc(-c4cc5c(c(OC)n4)[C@@H](N4CC6(CCC(=O)N6)C4)CC5)c3Cl)c2Cl)cnc1CN1CC2(C1)CN(C(C)=O)C2 (single isomer, unassigned) [Compound D-14] | ≤ 10 | ≤ 10
COc1nc(-c2cccc(-c3cccc(-c4cc5c(c(OC)n4)[C@@H](N4CC6(CCC(=O)N6)C4)CC5)c3Cl)c2Cl)cnc1CNC[C@@H]1CCC(=O)N1 (single isomer, unassigned) [Compound D-15] | ≤ 10 | 10 to 100
COc1nc(-c2cccc(-c3cccc(-c4cc5c(c(OC)n4)[C@H](N4CC6(CN(C(C)=O)C6)C4)CC5)c3Cl)c2Cl)cnc1CNC[C@@H]1CCC(=O)N1 (single isomer, unassigned) [Compound D-17] | ≤ 10 | 10 to 100
COc1nc(-c2cccc(-c3cccc(-c4cc5c(c(OC)n4)[C@@H](N4CC6(CN(C(C)=O)C6)C4)CC5)c3Cl)c2Cl)cnc1CN1CC2(C1)CN(C(C)=O)C2 (single isomer, unassigned) [Compound D-18] | ≤ 10 | > 10000
COc1nc(-c2cccc(-c3cccc(-c4cc5c(c(OC)n4)[C@H](N4CC6(CN(C(C)=O)C6)C4)CC5)c3Cl)c2Cl)cnc1CN1CC2(C1)CN(C(C)=O)C2 (single isomer, unassigned) [Compound D-19] | ≤ 10 | ≤ 10
COc1nc(-c2cccc(-c3cccc(-c4cc5c(c(OC)n4)[C@@H](NC[C@@H]4CCC(=O)N4)CO5)c3Cl)c2Cl)cc(C)c1CN1CC2(C1)CN(C(C)=O)C2 (single isomer, unassigned) [Compound E-4] | ≤ 10 | ≤ 10
CCOC(=O)C1CN([C@H]2CCc3cc(-c4cccc(-c5cccc(-c6cnc(CN7CC(OC)C7)c(OC)n6)c5Cl)c4Cl)nc(OC)c32)C1 (single isomer, unassigned) [Compound G-5] | ≤ 10 | 10 to 100
CCOC(=O)C1CN([C@@H]2CCc3cc(-c4cccc(-c5cccc(-c6cnc(CN7CC(OC)C7)c(OC)n6)c5Cl)c4Cl)nc(OC)c32)C1 (single isomer, unassigned) [Compound G-6] | ≤ 10 | 1000 to 10000
COc1nc(-c2cccc(-c3cccc(-c4cc5c(c(OC)n4)[C@@H](N4CC(C(=O)O)C4)CC5)c3Cl)c2Cl)cnc1CN1CC(OC)C1 (single isomer, unassigned) [Compound H-3] | ≤ 10 | 10 to 100
COc1nc(-c2cccc(-c3cccc(-c4cc5c(c(OC)n4)[C@H](N4CC(C(=O)O)C4)CC5)c3Cl)c2Cl)cnc1CN1CC(OC)C1 (single isomer, unassigned) [Compound H-4] | ≤ 10 | 100 to 1000
COc1nc(-c2cccc(-c3cccc(-c4cc5c(c(OC)n4)[C@@H](N4CC(C(=O)O)C4)CC5)c3Cl)c2Cl)cnc1CN1C[C@@H](O)[C@@H]1C (single isomer, unassigned) [Compound H-5] | ≤ 10 | 10 to 100
